Data published in patent US8163705B2, “Glycolipid and use thereof” (Riken, priority 2006, dated 2012).

Assays:
[1] = system: Splenocytes from a mouse spleen; assay: Experimental Example 1: cytokine (IFN-γ, IL-4) production by mouse splenocytes, sandwich ELISA of culture supernatant; format: cell-based; conditions: mouse splenocytes 2×10^5 cells/well, reagent 40 ng/mL, 72 hours, FIG. 1
Description: Splenocytes from a mouse spleen were prepared using an RPMI1640 culture broth (produced by Sigma) containing 10% Fetal calf serum (FCS) at 2×10^5 cells/well (96-well plate). A reagent was added to this culture broth at a concentration of 40 ng/mL; 3 days later (72 hours later), the cytokine content in the culture supernatant was measured by a sandwich ELISA technique. The test substances used were compound 11, compound 12 and compound 13 as obtained in Examples 1 to 3, with a compound represented by the following formula (a) (α-GalCer, hereinafter referred to as “compound a”) used as the comparator.
(§1) These findings confirm that the compounds of the present invention are effective as therapeutic drugs for pathologic conditions that can be ameliorated by IL-4.

[2] = system: Splenocytes taken out from a mouse spleen; assay: Experimental Example 2: cytokine (IFN-γ, IL-4) production by mouse splenocytes, sandwich ELISA of culture supernatant; format: cell-based; conditions: reagent 20 ng/mL, 48 hours, FIG. 2; for IFN-γ production amount and IL-4 production amount (cytokine production pattern): mouse splenocytes 2×10^5 cells/well, culture supernatant; for IL-4-predominant cytokine production compared with compound b (OCH): mouse splenocytes
Description: Splenocytes taken out from a mouse spleen were prepared using an RPMI1640 culture broth (produced by Sigma) containing 10% Fetal calf serum (FCS) at 2×10^5 cells/well (96-well plate). A reagent was added to this culture broth at a concentration of 20 ng/mL; 2 days later (48 hours later), the cytokine content in the culture supernatant was measured by a sandwich ELISA technique. The test substances used were compound 11, compound 12, compound 13 and compound 48 as obtained in Examples 1 to 3 and Reference Example, with compound a and a compound represented by the following formula (b) (OCH, hereinafter referred to as compound b) used as the comparators.
as §1

[3] = system: Splenocytes taken out from a mouse spleen; conditions: stated as known; cited from earlier work

| SMILES | IFN-γ production amount and IL-4 production amount (cytokine production pattern) [1] | IFN-γ production amount and IL-4 production amount (cytokine production pattern) [2] | IL-4-predominant cytokine production compared with compound b (OCH) [2] | cytokine production pattern as known for the comparator [3] |
| --- | --- | --- | --- | --- |
| CCCCCCCCCCCCCC[C@@H](O)[C@@H](O)[C@H](CO[C@H]1O[C@H](CO)[C@H](O)[C@H](O)[C@H]1O)NS(=O)(=O)c1cccc(C)c1 [compound 13, (2S,3S,4R)-1-(α-D-galactopyranosyloxy)-2-(m-toluenesulfonylamino)-3,4-octadecanediol] | IL-4-predominant cytokine production pattern | IL-4-predominant cytokine production pattern with smaller amounts of IFN-γ produced | capable of inducing IL-4-predominant cytokine production to higher extents than compound b | – |
| CCCCCCCCCCCCCC[C@@H](O)[C@@H](O)[C@H](CO[C@H]1O[C@H](CO)[C@H](O)[C@H](O)[C@H]1O)NS(=O)(=O)c1ccccc1C [compound 12, (2S,3S,4R)-1-(α-D-galactopyranosyloxy)-2-(o-toluenesulfonylamino)-3,4-octadecanediol] | IL-4-predominant cytokine production pattern | IL-4-predominant cytokine production pattern with smaller amounts of IFN-γ produced | capable of inducing IL-4-predominant cytokine production to higher extents than compound b | – |
| CCCCCCCCCCCCCCCCS(=O)(=O)N[C@@H](CO[C@H]1O[C@H](CO)[C@H](O)[C@H](O)[C@H]1O)[C@H](O)[C@H](O)CCCCCCCCCCCCCC [compound 48, (2S,3S,4R)-1-(α-D-galactopyranosyloxy)-2-(hexadecanesulfonylamino)-3,4-octadecanediol] | – | IL-4-predominant cytokine production pattern with smaller amounts of IFN-γ produced | capable of inducing IL-4-predominant cytokine production to higher extents than compound b | – |
| CCCCCCCCCCCCCC[C@@H](O)[C@@H](O)[C@H](CO[C@H]1O[C@H](CO)[C@H](O)[C@H](O)[C@H]1O)NS(=O)(=O)c1ccc(C)cc1 [compound 11, (2S,3S,4R)-1-(α-D-galactopyranosyloxy)-2-(p-toluenesulfonylamino)-3,4-octadecanediol] | IL-4-predominant cytokine production pattern | IL-4-predominant cytokine production pattern with smaller amounts of IFN-γ produced | capable of inducing IL-4-predominant cytokine production to higher extents than compound b | – |
| CCCCCCCCCCCCCCCCCCCCCCCCCC(=O)N[C@@H](COC1OC(CO)C(O)C(O)C1O)[C@H](O)[C@H](O)CCCCCCCCCCCCCC (some centres unmarked) [compound a, reference compound] | produced both IFN-γ and IL-4 in large amounts | produced both IFN-γ and IL-4 in large amounts | – | – |
| CCCCCCCCCCCCCCCCCCCCCCCC(=O)N[C@@H](COC1OC(CO)C(O)C(O)C1O)[C@H](O)[C@H](O)CCCCC (some centres unmarked) [compound b] | – | – | – | induces IL-4-predominant cytokine production |
